This note sets out measurements from PubChem BioAssay AID330 (DTP/NCI, 2004).

Where “and” joins values, the source holds several entries; their conditions need not be identical. Equal values may be shown once. Inconclusive results and toxic doses are left out.

The test system of this test is P388 leukemia ip, CD2F1 mice, survival T/C. As to the kind of experiment: NCI In Vivo Anticancer Drug Screen. Data for tumor model P388 Leukemia (intraperitoneal) in CD2F1 (CDF1) mice. Particulars: endpoint: median survival time, higher = longer survival. Summed up:
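Mice carrying the transplanted tumor received test compound or vehicle. Survival was recorded in each group, and the value is the treated-group measurement divided by that of the vehicle-treated control group.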

Setting [1] is: dose: 100.0 mg/kg/injection, schedule: Q01DX001 (ip), vehicle: Klucel (hydroxypropylcellulose) (HPC).
Where [2] appears, read: dose: 200.0 mg/kg/injection, schedule: Q01DX001 (ip), vehicle: Klucel (hydroxypropylcellulose) (HPC).
[3] abbreviates: dose: 400.0 mg/kg/injection, schedule: Q01DX001 (ip), vehicle: Klucel (hydroxypropylcellulose) (HPC).
Where [4] appears, read: dose: 50.0 mg/kg/injection, schedule: Q01DX005 (ip), vehicle: saline with Tween-80.
[5] abbreviates: dose: 100.0 mg/kg/injection, schedule: Q01DX005 (ip), vehicle: saline with Tween-80.
Where [6] appears, read: dose: 200.0 mg/kg/injection, schedule: Q01DX005 (ip), vehicle: saline with Tween-80.
The mark [7] stands for this setting: dose: 50.0 mg/kg/injection, schedule: Q01DX005 (ip), vehicle: Klucel (hydroxypropylcellulose) (HPC).
The mark [8] stands for this setting: dose: 100.0 mg/kg/injection, schedule: Q01DX005 (ip), vehicle: Klucel (hydroxypropylcellulose) (HPC).
[9] abbreviates: dose: 60.0 mg/kg/injection, schedule: Q01DX005 (ip), vehicle: Klucel (hydroxypropylcellulose) (HPC).
[10] abbreviates: dose: 120.0 mg/kg/injection, schedule: Q01DX005 (ip), vehicle: Klucel (hydroxypropylcellulose) (HPC).
[11] abbreviates: dose: 50.0 mg/kg/injection, schedule: Q01DX009 (ip), vehicle: Klucel (hydroxypropylcellulose) (HPC).
[12] abbreviates: dose: 100.0 mg/kg/injection, schedule: Q01DX009 (ip), vehicle: Klucel (hydroxypropylcellulose) (HPC).
The mark [13] stands for this setting: dose: 200.0 mg/kg/injection, schedule: Q01DX009 (ip), vehicle: Klucel (hydroxypropylcellulose) (HPC).
Where [14] appears, read: dose: 50.0 mg/kg/injection, schedule: Q01DX005 (ip), vehicle: saline.

As to `O=C(O)C1CSCN1` (stereo not given), the T/C runs as follows: (dose: 6.25 mg/kg/injection, schedule: Q01DX009 (ip), vehicle: water) 90 % of control and 96 % of control; (dose: 12.5 mg/kg/injection, schedule: Q01DX009 (ip), vehicle: water) 99 % of control and 96 % of control; (dose: 25.0 mg/kg/injection, schedule: Q01DX009 (ip), vehicle: water) 98 % of control and 99 % of control; (dose: 50.0 mg/kg/injection, schedule: Q01DX009 (ip), vehicle: water) 98 % of control and 95 % of control; (dose: 100.0 mg/kg/injection, schedule: Q01DX009 (ip), vehicle: water) 100 % of control; (dose: 200.0 mg/kg/injection, schedule: Q01DX009 (ip), vehicle: water) 96 % of control.
For the compound `CCC(=O)n1c(Cl)c(/C=N/NC(N)=S)c2ccccc21`, the T/C was 95 % of control under setting [1], 100 % of control under setting [2] and 93 % of control under setting [3].
Regarding `COc1ccc(CCNC2=CC(=O)CCC2)cc1OC`, the T/C under setting [4] is 101 % of control, the T/C under setting [5] is 99 % of control and the T/C under setting [6] is 101 % of control.
`Cc1cc(NS(=O)(=O)c2ccc(N=c3c4ccccc4n(C)c4ccccc34)cc2)no1`: the T/C runs as follows: under setting [4], 103 % of control; under setting [5], 102 % of control; under setting [6], 103 % of control.
As for `O=C1CC2(CCCC2)C(=O)N1c1cccc(Cl)c1`, the T/C under setting [1] was 97 % of control, the T/C under setting [2] is 100 % of control and the T/C under setting [3] is 91 % of control.
Regarding `CC1(C)OC2CCC3OC(=O)C(C)(Cl)C3C2O1` (stereo not given), the T/C is, setting by setting: (dose: 12.5 mg/kg/injection, schedule: Q01DX009 (ip), vehicle: other) 116 % of control; (dose: 25.0 mg/kg/injection, schedule: Q01DX009 (ip), vehicle: other) 107 % of control; (dose: 50.0 mg/kg/injection, schedule: Q01DX009 (ip), vehicle: other) 99 % of control; (dose: 100.0 mg/kg/injection, schedule: Q01DX009 (ip), vehicle: other) 116 % of control.
Consider `O=C(O)c1[nH]c(=O)[nH]c(=O)c1F`, for which the T/C by setting is: (dose: 2.5 mg/kg/injection, schedule: Q01DX010 (ip), vehicle: saline) 110 % of control; (dose: 5.0 mg/kg/injection, schedule: Q01DX010 (ip), vehicle: saline) 160 % of control; (dose: 16.0 mg/kg/injection, schedule: Q01DX009 (ip), vehicle: saline) 100 % of control.
As to `CC1=C(c2ccccc2)C2(c3ccccc3)[N-][n+]3c(ccc4ccccc43)C2(C)C1=O` (stereo not given), the T/C was 97 % of control under setting [7] and 97 % of control under setting [8].
For `CN(C(=[Se])[Se]C(=[Se])N(C)C1CCCCC1)C1CCCCC1`, the T/C is, setting by setting: (dose: 15.0 mg/kg/injection, schedule: Q01DX005 (ip), vehicle: Klucel (hydroxypropylcellulose) (HPC)) 95 % of control; (dose: 30.0 mg/kg/injection, schedule: Q01DX005 (ip), vehicle: Klucel (hydroxypropylcellulose) (HPC)) 96 % of control; under setting [9], 100 % of control and 93 % of control; under setting [10], 99 % of control.
Regarding `COc1ccc2c(c1)CCc1nc3n(c1-2)C(O)(c1ccccc1)C(CC(=O)O)S3` (stereo not given), the T/C under setting [11] was 94 % of control, the T/C under setting [12] was 105 % of control and the T/C under setting [13] is 103 % of control.
Turning to `C=CCNc1ncnc2sc(SC)nc12`, the T/C is 100 % of control (dose: 100.0 mg/kg/injection, schedule: Q04DX002 (ip), vehicle: distilled water + alcohol); 104 % of control (dose: 200.0 mg/kg/injection, schedule: Q04DX002 (ip), vehicle: distilled water + alcohol); 99 % of control (dose: 400.0 mg/kg/injection, schedule: Q04DX002 (ip), vehicle: distilled water + alcohol).
Take `CC(C)NCC(O)c1ccc(O)c2ncccc12` (stereo not given): the T/C is 100 % of control under setting [14]; 100 % of control (dose: 100.0 mg/kg/injection, schedule: Q01DX005 (ip), vehicle: saline); 101 % of control (dose: 200.0 mg/kg/injection, schedule: Q01DX005 (ip), vehicle: saline).
Consider `O=C1CSC(=S)N1c1ccc(F)c(F)c1`, for which the T/C (dose: 50.0 mg/kg/injection, schedule: Q01DX009 (ip), vehicle: saline) was 107 % of control; the T/C (dose: 100.0 mg/kg/injection, schedule: Q01DX009 (ip), vehicle: saline) is 106 % of control; the T/C (dose: 200.0 mg/kg/injection, schedule: Q01DX009 (ip), vehicle: saline) was 108 % of control.
For `Nc1ccc(S(=O)(=O)c2ccc(Nc3ccnc4cc(Cl)ccc34)cc2)cc1`, the T/C under setting [7] was 100 % of control; the T/C under setting [8] is 92 % of control; the T/C (dose: 200.0 mg/kg/injection, schedule: Q01DX005 (ip), vehicle: Klucel (hydroxypropylcellulose) (HPC)) is 90 % of control.
As to `O=C1c2ccccc2-c2nnsc21`, the T/C was 98 % of control under setting [9]; 107 % of control under setting [10]; 100 % of control (dose: 240.0 mg/kg/injection, schedule: Q01DX005 (ip), vehicle: Klucel (hydroxypropylcellulose) (HPC)).
As to `O=P(c1ccccc1)(c1ccccc1)C(O)c1ccncc1` (stereo not given), the T/C under setting [11] was 102 % of control, the T/C under setting [12] is 103 % of control and the T/C under setting [13] is 103 % of control.
As to `O=C(c1ccccc1)C12CCC(CC1)CC2`, the T/C under setting [11] is 94 % of control, the T/C under setting [12] is 94 % of control and the T/C under setting [13] is 109 % of control.
Turning to `COc1cc(/C=C/c2ccc3ccccc3n2)cc(OC)c1OC`, the T/C (dose: 50.0 mg/kg/injection, schedule: Q04DX003 (ip), vehicle: saline with Tween-80) is 100 % of control; the T/C (dose: 100.0 mg/kg/injection, schedule: Q01DX009 (ip), vehicle: saline with Tween-80) is 86 % of control; the T/C (dose: 100.0 mg/kg/injection, schedule: Q04DX003 (ip), vehicle: saline with Tween-80) is 100 % of control; the T/C (dose: 200.0 mg/kg/injection, schedule: Q01DX009 (ip), vehicle: saline with Tween-80) is 90 % of control; the T/C (dose: 200.0 mg/kg/injection, schedule: Q04DX003 (ip), vehicle: saline with Tween-80) was 100 % of control.
As for `O=C(c1ccc(-c2ccccc2)cc1)C1CC1c1ccccc1` (stereo not given), the T/C was 109 % of control (dose: 25.0 mg/kg/injection, schedule: Q01DX001 (ip), vehicle: saline sonified); 90 % of control (dose: 50.0 mg/kg/injection, schedule: Q01DX001 (ip), vehicle: saline sonified); 90 % of control (dose: 100.0 mg/kg/injection, schedule: Q01DX001 (ip), vehicle: saline sonified).
Turning to `O=[N+]([O-])c1ccc(C2=C[P+](c3ccccc3)(c3ccccc3)c3ccccc3O2)cc1`, the T/C is, setting by setting: (dose: 0.78 mg/kg/injection, schedule: Q01DX005 (ip), vehicle: Klucel (hydroxypropylcellulose) (HPC)) 106 % of control; (dose: 1.56 mg/kg/injection, schedule: Q01DX005 (ip), vehicle: Klucel (hydroxypropylcellulose) (HPC)) 115 % of control; (dose: 3.12 mg/kg/injection, schedule: Q01DX005 (ip), vehicle: Klucel (hydroxypropylcellulose) (HPC)) 117 % of control; (dose: 6.25 mg/kg/injection, schedule: Q01DX005 (ip), vehicle: Klucel (hydroxypropylcellulose) (HPC)) 112 % of control.
On to `OC1(O)CCC1(O)OCCBr` (stereo not given), for which the T/C was 92 % of control (dose: 60.0 mg/kg/injection, schedule: Q01DX005 (ip), vehicle: saline with Tween-80) and 108 % of control (dose: 120.0 mg/kg/injection, schedule: Q01DX005 (ip), vehicle: saline with Tween-80).
Regarding `O=C1c2cccc3cccc(c23)C(=O)N1CCCCCCCCN1C(=O)c2cccc3cccc(c23)C1=O`, the T/C under setting [4] is 96 % of control, the T/C under setting [5] was 95 % of control and the T/C under setting [6] is 87 % of control.
As for `Cc1ccc(NCCNCC(O)CO)c2c(=O)c3ccccc3sc12` (stereo not given), the T/C reads like this: (dose: 12.5 mg/kg/injection, schedule: Q01DX005 (ip), vehicle: Klucel (hydroxypropylcellulose) (HPC)) 109 % of control; (dose: 25.0 mg/kg/injection, schedule: Q01DX005 (ip), vehicle: Klucel (hydroxypropylcellulose) (HPC)) 118 % of control; under setting [14], 151 % of control.
